In PubChem BioAssay AID248 (DTP/NCI, 2004):
Where “and” joins values, the source holds several entries; their conditions need not be identical. Equal values may be shown once. Toxic doses and inconclusive results are not listed. Cut-off read from the data, not from the text of the source: active = T/C of 150% or more; inactive = T/C below 125%.

Test system: L1210 leukemia ip in BDF1 mice, survival T/C
Test: NCI In Vivo Anticancer Drug Screen. Data for tumor model L1210 Leukemia (intraperitoneal) in B6D2F1 (BDF1) mice
Details: endpoint: mean survival time, higher = longer survival
Procedure, shortened: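 Ratio derived from survival: compound-dosed mice over vehicle-dosed mice, all bearing a transplantable tumor.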

[1] = dose: 50.0 mg/kg/injection, schedule: Q01DX009 (ip), vehicle: saline
[2] = dose: 100.0 mg/kg/injection, schedule: Q01DX009 (ip), vehicle: saline with Tween-80
[3] = dose: 100.0 mg/kg/injection, schedule: Q04DX003 (ip), vehicle: Klucel (hydroxypropylcellulose) (HPC)
[4] = dose: 200.0 mg/kg/injection, schedule: Q01DX009 (ip), vehicle: saline with Tween-80
[5] = dose: 200.0 mg/kg/injection, schedule: Q04DX003 (ip), vehicle: Klucel (hydroxypropylcellulose) (HPC)
[6] = dose: 400.0 mg/kg/injection, schedule: Q01DX009 (ip), vehicle: saline with Tween-80
[7] = dose: 400.0 mg/kg/injection, schedule: Q04DX003 (ip), vehicle: Klucel (hydroxypropylcellulose) (HPC)
[8] = dose: 100.0 mg/kg/injection, schedule: Q04DX003 (ip), vehicle: saline with Tween-80
[9] = dose: 200.0 mg/kg/injection, schedule: Q04DX003 (ip), vehicle: saline with Tween-80
[10] = dose: 400.0 mg/kg/injection, schedule: Q04DX003 (ip), vehicle: saline with Tween-80
[11] = dose: 100.0 mg/kg/injection, schedule: Q01DX009 (ip), vehicle: saline
[12] = dose: 200.0 mg/kg/injection, schedule: Q01DX009 (ip), vehicle: saline
[13] = dose: 400.0 mg/kg/injection, schedule: Q01DX009 (ip), vehicle: saline
[14] = dose: 200.0 mg/kg/injection, schedule: Q01DX009 (ip), vehicle: other
[15] = dose: 100.0 mg/kg/injection, schedule: Q01DX001 (ip), vehicle: saline
[16] = dose: 200.0 mg/kg/injection, schedule: Q01DX001 (ip), vehicle: saline
[17] = dose: 400.0 mg/kg/injection, schedule: Q01DX001 (ip), vehicle: saline
[18] = dose: 100.0 mg/kg/injection, schedule: Q04DX003 (ip), vehicle: other

Measured: T/C

COc1cc(C(=O)O)c(C(=O)O)cc1OC
inactive: dose: 12.5 mg/kg/injection, schedule: Q01DX001 (ip), vehicle: Klucel (hydroxypropylcellulose) (HPC) 104 % of control | dose: 12.5 mg/kg/injection, schedule: Q01DX009 (ip), vehicle: saline 101 % of control | dose: 25.0 mg/kg/injection, schedule: Q01DX001 (ip), vehicle: Klucel (hydroxypropylcellulose) (HPC) 108 % of control | dose: 25.0 mg/kg/injection, schedule: Q01DX009 (ip), vehicle: saline 103 % of control | dose: 50.0 mg/kg/injection, schedule: Q01DX001 (ip), vehicle: Klucel (hydroxypropylcellulose) (HPC) 101 % of control | [1] 104 % of control | dose: 75.0 mg/kg/injection, schedule: Q01DX009 (ip), vehicle: Klucel (hydroxypropylcellulose) (HPC) 97 % of control | dose: 115.0 mg/kg/injection, schedule: Q01DX009 (ip), vehicle: Klucel (hydroxypropylcellulose) (HPC) 100 % of control | dose: 170.0 mg/kg/injection, schedule: Q01DX009 (ip), vehicle: Klucel (hydroxypropylcellulose) (HPC) 100 % of control | dose: 400.0 mg/kg/injection, schedule: Q01DX001 (ip), vehicle: Klucel (hydroxypropylcellulose) (HPC) 88 % of control

CNC(=O)OC(C)(C)C#N
inactive: dose: 100.0 mg/kg/injection, schedule: Q04DX002 (ip), vehicle: saline with Tween-80 101 % of control | dose: 200.0 mg/kg/injection, schedule: Q04DX002 (ip), vehicle: saline with Tween-80 101 % of control | dose: 400.0 mg/kg/injection, schedule: Q04DX002 (ip), vehicle: saline with Tween-80 106 % of control

OC(C1CC2CCC1C2)(C1CC2CCC1C2)C1CC2CCC1C2 (stereo not drawn)
inactive: [2] 92 % of control | [3] 94 % of control | [4] 97 % of control | [5] 96 % of control | [6] 90 % of control | [7] 97 % of control

CCOC(=O)C(=N\Nc1ccc(C)cc1C)/C(C)=N\NC(N)=S
inactive: dose: 75.0 mg/kg/injection, schedule: Q01DX001 (ip), vehicle: saline 105 % of control

Cc1ccc2c(c1)=N/C(=N\c1nc(O)c(O)[nH]1)N=2
inactive: [8] 97 % of control | [9] 108 % of control | [10] 103 % of control

CC(C)(C)CC(C)(C)NS(=O)(=O)NC(C)(C)CC(C)(C)C
inactive: [2] 103 % of control | [4] 93 % of control | [6] 92 % of control

CC(Cc1ccc(O)c(O)c1)C(C)Cc1ccc(O)c(O)c1 (stereo not drawn)
inactive: [1] 98 % of control | [11] 100 % of control | [12] 96 % of control | [13] 100 % of control

CC(=O)Nc1ccc(/C=C(\C#N)c2ccc(C)cc2)cc1
inactive: [8] 87 % of control | [9] 90 % of control | [10] 101 % of control

CCOC(=O)C(c1ccccc1)c1ccccc1
inactive: dose: 100.0 mg/kg/injection, schedule: Q01DX009 (ip), vehicle: other 102 % of control | [14] 94 % of control | dose: 400.0 mg/kg/injection, schedule: Q01DX009 (ip), vehicle: other 93 % of control

O=C1CCCCCCCS(=O)(=O)C1
inactive: dose: 75.0 mg/kg/injection, schedule: Q01DX001 (ip), vehicle: carboxymethylcellulose (CMC) 112 % of control | dose: 150.0 mg/kg/injection, schedule: Q01DX001 (ip), vehicle: carboxymethylcellulose (CMC) 104 % of control

O/N=C(\c1ccccc1)C(c1ccccc1)C(Cl)(Cl)Cl (stereo not drawn)
inactive: [8] 86 % of control | [9] 88 % of control | [10] 88 % of control

O=C(O)CCCCCCCCCCN1C(=O)c2cccc([N+](=O)[O-])c2C1=O
inactive: dose: 87.5 mg/kg/injection, schedule: Q04DX003 (ip), vehicle: carboxymethylcellulose (CMC) 101 % of control | dose: 175.0 mg/kg/injection, schedule: Q04DX003 (ip), vehicle: carboxymethylcellulose (CMC) 97 % of control | dose: 350.0 mg/kg/injection, schedule: Q04DX003 (ip), vehicle: carboxymethylcellulose (CMC) 87 % of control

CC(=O)Nc1cc2c(cc1[N+](=O)[O-])-c1ccc([N+](=O)[O-])cc1C2
inactive: dose: 100.0 mg/kg/injection, schedule: Q01DX009 (ip), vehicle: Klucel (hydroxypropylcellulose) (HPC) 95 % of control | [3] 93 % of control | dose: 200.0 mg/kg/injection, schedule: Q01DX009 (ip), vehicle: Klucel (hydroxypropylcellulose) (HPC) 89 % of control | [5] 91 % of control | dose: 400.0 mg/kg/injection, schedule: Q01DX009 (ip), vehicle: Klucel (hydroxypropylcellulose) (HPC) 94 % of control | [7] 94 % of control

NC(N)=N/N=C(/c1ccccc1)c1ccc(O)cc1O
inactive: dose: 15.0 mg/kg/injection, schedule: Q01DX Z (ip), vehicle: saline 101 % of control | dose: 30.0 mg/kg/injection, schedule: Q01DX Z (ip), vehicle: saline 92 % of control | dose: 60.0 mg/kg/injection, schedule: Q01DX Z (ip), vehicle: saline 94 % of control | dose: 120.0 mg/kg/injection, schedule: Q01DX Z (ip), vehicle: saline 92 % of control | dose: 120.0 mg/kg/injection, schedule: Q01DX Z (oral), vehicle: saline 101 % of control | dose: 240.0 mg/kg/injection, schedule: Q01DX Z (ip), vehicle: saline 108 % of control | dose: 240.0 mg/kg/injection, schedule: Q01DX Z (oral), vehicle: saline 102 % of control | dose: 480.0 mg/kg/injection, schedule: Q01DX Z (oral), vehicle: saline 101 % of control | dose: 960.0 mg/kg/injection, schedule: Q01DX Z (oral), vehicle: saline 98 % of control

CCCC(Cl)C(=O)Nc1cccc(O)c1 (stereo not drawn)
inactive: [2] 91 % of control | [4] 91 % of control

CCC(C)(C1CCC(O)CC1)C1CCC(O)CC1 (stereo not drawn)
inactive: [15] 94 % of control | [16] 96 % of control | [17] 98 % of control

O=c1[nH]c2cc3ccccc3cc2c2ccccc12
inactive: [15] 109 % of control | [16] 95 % of control | [17] 100 % of control

CC(=O)Nc1ccccc1SC(C)=O
inactive: [18] 88 % of control

COc1ccccc1C1CCCC1OS(C)(=O)=O (stereo not drawn)
inactive: dose: 75.0 mg/kg/injection, schedule: Q04DX003 (ip), vehicle: saline 103 % of control | [15] 98 % of control | dose: 150.0 mg/kg/injection, schedule: Q04DX003 (ip), vehicle: saline 100 % of control | [16] 107 % of control | dose: 300.0 mg/kg/injection, schedule: Q04DX003 (ip), vehicle: saline 108 % of control | [17] 96 % of control

O=C(C(=O)c1ccc(O)cc1)c1ccccc1
inactive: dose: 100.0 mg/kg/injection, schedule: Q01DX001 (ip), vehicle: carboxymethylcellulose (CMC) 103 % of control | dose: 200.0 mg/kg/injection, schedule: Q01DX001 (ip), vehicle: carboxymethylcellulose (CMC) 97 % of control | dose: 400.0 mg/kg/injection, schedule: Q01DX001 (ip), vehicle: carboxymethylcellulose (CMC) 97 % of control

O=C(NC(CSSCC(NC(=O)OCc1ccccc1)C(=O)O)C(=O)O)OCc1ccccc1 (stereo not drawn)
inactive: dose: 85.0 mg/kg/injection, schedule: Q01DX009 (ip), vehicle: other 98 % of control | [11] 94 % of control and 98 % of control | [18] 98 % of control | dose: 100.0 mg/kg/injection, schedule: Q04DX003 (ip), vehicle: saline 90 % of control | dose: 135.0 mg/kg/injection, schedule: Q01DX009 (ip), vehicle: other 88 % of control | [14] 97 % of control | [12] 118 % of control and 92 % of control | dose: 200.0 mg/kg/injection, schedule: Q04DX003 (ip), vehicle: other 88 % of control | dose: 200.0 mg/kg/injection, schedule: Q04DX003 (ip), vehicle: saline 102 % of control | dose: 300.0 mg/kg/injection, schedule: Q01DX009 (ip), vehicle: other 99 % of control | [13] 94 % of control and 104 % of control | dose: 400.0 mg/kg/injection, schedule: Q04DX003 (ip), vehicle: other 96 % of control | dose: 400.0 mg/kg/injection, schedule: Q04DX003 (ip), vehicle: saline 101 % of control

CC1(C)CC(N=Cc2ccccc2O)CC(C)(C)N1O.CC1(C)CC(N=Cc2ccccc2O)CC(C)(C)N1O.[Pd]
inactive: [8] 88 % of control | [9] 90 % of control | [10] 88 % of control
